Test results from patent US12285407B2, “Bis-indolylmethane derivatives and uses thereof” (The University of The West Indies, priority 2018, dated 2025).

Columns and labels:
Bacillus cereus = test: Checkerboard synergy (FICI) of antibiotics with SP-BIM; assay type: cell-based; details: for MIC antibiotic only: antibiotic alone
Staphylococcus aureus = test: as above; assay type: cell-based; details: Staphylococcus aureus; for MIC antibiotic only: antibiotic alone
Streptococcus pneumoniae [1] = test: as above; assay type: cell-based; details: for MIC antibiotic only: antibiotic alone
Escherichia coli [2] = test: microbe, parasite or virus in culture; assay type: cell-based; details: antibiotic alone, Table 6
Candida albicans = test: Checkerboard synergy (FICI) of antibiotics with SP-BIM; set-up: MIC SP-BIM 13 only / MIC in combination: Antibiotic / MIC antibiotic only: unit not given beside the values
MRSA = test: Adjuvant broth microdilution (antibiotic MIC with SP-BIM at 50 μg/mL); assay type: cell-based, Staphylococcus aureus; details: antibiotic alone, Table 4
Streptococcus pneumoniae [3] = test: as above; assay type: cell-based; details: Streptococcus pneumonia; antibiotic alone; Table 5
Enterococcus faecium = test: Checkerboard synergy (FICI) of antibiotics with SP-BIM; assay type: cell-based; details: Enterococcus faecium; for MIC antibiotic only: antibiotic alone
Klebsiella pneumoniae [4] = test: Adjuvant broth microdilution (antibiotic MIC with SP-BIM at 50 μg/mL); assay type: cell-based; details: Klebsiella pneumoniae; antibiotic alone; Table 7
Klebsiella pneumoniae [5] = test: Checkerboard synergy (FICI) of antibiotics with SP-BIM; assay type: cell-based; details: for MIC antibiotic only: antibiotic alone
Escherichia coli [6] = test: as above; set-up: MIC SP-BIM 13 only / MIC in combination: Antibiotic: unit not given beside the values; details: for MIC antibiotic only: antibiotic alone
clinical strains of MRSA = test: Kirby Bauer disc diffusion susceptibility profile; assay type: cell-based, Staphylococcus aureus; details: for Zone of clearance: 35° C., 24 hours, average n=3; for Interpretive standard (resistant/susceptible): zones vs EUCAST breakpoints (Table 30)
Enterococcus faecalis = test: Adjuvant broth microdilution (antibiotic MIC with SP-BIM at 50 μg/mL); assay type: cell-based; details: antibiotic alone
Escherichia coli O157:H7 = test: Rescue concentrations of SP-BIM that reactivate antibiotic; assay type: cell-based
[7] = SP-BIM 13 concentration in combination with the labelled antibiotic
[8] = SP-BIM 13 in combination with the labelled antibiotic
[9] = antibiotic in combination with SP-BIM 13
[10] = SP-BIM 9 concentration in combination with the labelled antibiotic
[11] = SP-BIM 9 in combination with the labelled antibiotic
[12] = antibiotic in combination with SP-BIM 9
[13] = Streptococcus pneumonia (title: Streptococcus pyogenes), antibiotic + SP-BIM 9
[14] = Streptococcus pneumoniae, antibiotic + SP-BIM 13
[15] = MIC of the antibiotic in combination with SP-BIM 13

## CC1=C(C(=O)O)N2C(=O)[C@@H](NC(=O)[C@H](N)c3ccccc3)[C@H]2SC1 [Cephalexin, cefalexin]
Bacillus cereus; [7]
  MIC in combination, SP-BIM 13: 32 µg/mL
Bacillus cereus; [8]
  FIC of SP-BIM 13: 0.1
Bacillus cereus; antibiotic + SP-BIM 13
  Interpretation: Synergy (Synergy: FICI≤0.5)
  Σ FIC: <0.1
Bacillus cereus; SP-BIM 9 checkerboard
  MIC antibiotic only: >250 µg/mL
Bacillus cereus; SP-BIM 13 checkerboard
  MIC antibiotic only: 250 µg/mL
Bacillus cereus; [9]
  MIC in combination, Antibiotic: 4 µg/mL
Bacillus cereus; in combination with SP-BIM 13
  FIC of antibiotic: 0.02
Staphylococcus aureus; [10]
  MIC in combination, SP-BIM 9: 16.0 µg/mL
Staphylococcus aureus; [11]
  FIC of SP-BIM 9: 0.06
Staphylococcus aureus; [7]
  MIC in combination, SP-BIM 13: 63 µg/mL
Staphylococcus aureus; [8]
  FIC of SP-BIM 13: 0.5
Staphylococcus aureus; antibiotic + SP-BIM 9
  Interpretation: Synergy (Synergy: FICI≤0.5)
  Σ FIC: <0.19
Staphylococcus aureus; antibiotic + SP-BIM 13
  Interpretation: Additive (Additive: FICI>0.5-1.0)
  Σ FIC: 0.6
Staphylococcus aureus; SP-BIM 9 checkerboard
  MIC antibiotic only: 4 µg/mL
Staphylococcus aureus; SP-BIM 13 checkerboard
  MIC antibiotic only: 4 µg/mL
Staphylococcus aureus; [12]
  MIC in combination, Antibiotic: 0.5 µg/mL
Staphylococcus aureus; [9]
  MIC in combination, Antibiotic: 0.5 µg/mL
Staphylococcus aureus; in combination with SP-BIM 9
  FIC of antibiotic: 0.13
Staphylococcus aureus; in combination with SP-BIM 13
  FIC of antibiotic: 0.1
Streptococcus pneumoniae [1]; Streptococcus pneumonia (title: Streptococcus pyogenes), SP-BIM 9 concentration in combination with the labelled antibiotic
  MIC in combination, SP-BIM 9: 125 µg/mL
Streptococcus pneumoniae [1]; Streptococcus pneumonia (title: Streptococcus pyogenes), SP-BIM 9 in combination with the labelled antibiotic
  FIC of SP-BIM 9: 0.50
Streptococcus pneumoniae [1]; [13]
  Interpretation: Additive (Additive: FICI>0.5-1.0)
  Σ FIC: <0.63
Streptococcus pneumoniae [1]; Streptococcus pneumonia (title: Streptococcus pyogenes), SP-BIM 9 checkerboard
  MIC antibiotic only: 250 µg/mL
Streptococcus pneumoniae [1]; Streptococcus pneumonia (title: Streptococcus pyogenes), antibiotic in combination with SP-BIM 9
  MIC in combination, Antibiotic: 32 µg/mL
Streptococcus pneumoniae [1]; Streptococcus pneumonia (title: Streptococcus pyogenes), in combination with SP-BIM 9
  FIC of antibiotic: 0.13
Streptococcus pneumoniae [1]; Streptococcus pneumoniae, SP-BIM 13 concentration in combination with the labelled antibiotic
  MIC in combination, SP-BIM 13: 63 µg/mL
Streptococcus pneumoniae [1]; Streptococcus pneumoniae, SP-BIM 13 in combination with the labelled antibiotic
  FIC of SP-BIM 13: 0.3
Streptococcus pneumoniae [1]; [14]
  Interpretation: Synergy (Synergy: FICI≤0.5)
  Σ FIC: <0.3
Streptococcus pneumoniae [1]; Streptococcus pneumoniae, SP-BIM 13 checkerboard
  MIC antibiotic only: 250 µg/mL
Streptococcus pneumoniae [1]; Streptococcus pneumoniae, antibiotic in combination with SP-BIM 13
  MIC in combination, Antibiotic: 2 µg/mL
Streptococcus pneumoniae [1]; Streptococcus pneumoniae, in combination with SP-BIM 13
  FIC of antibiotic: 0.0
Escherichia coli [2]
  MIC of antibiotic, No Compound: >250 µg/mL
Candida albicans; [15]
  MIC in combination: Antibiotic: 63
Candida albicans; [8]
  FIC of SP-BIM 13: 0.5
Candida albicans; antibiotic + SP-BIM 13
  Interpretation: Additive (Additive: FICI>0.5-1.0)
  Σ FIC: <0.8
Candida albicans; antibiotic alone
  MIC antibiotic only: >250
Candida albicans; combination with SP-BIM 13
  FIC of antibiotic: 0.3
MRSA
  MIC of antibiotic, No Compound: 16 µg/mL
Streptococcus pneumoniae [3]
  MIC of antibiotic, No Compound: 250 µg/mL
Enterococcus faecium; [7]
  MIC in combination, SP-BIM 13: 63 µg/mL
Enterococcus faecium; [8]
  FIC of SP-BIM 13: 0.5
Enterococcus faecium; antibiotic + SP-BIM 13
  Interpretation: Synergy (Synergy: FICI≤0.5)
  Σ FIC: 0.5
Enterococcus faecium; SP-BIM 9 checkerboard
  MIC antibiotic only: 250 µg/mL
Enterococcus faecium; SP-BIM 13 checkerboard
  MIC antibiotic only: 250 µg/mL
Enterococcus faecium; [9]
  MIC in combination, Antibiotic: 8 µg/mL
Enterococcus faecium; in combination with SP-BIM 13
  FIC of antibiotic: 0.0
Klebsiella pneumoniae [4]
  MIC of antibiotic, No Compound: 8 µg/mL
Klebsiella pneumoniae [5]; [10]
  MIC in combination, SP-BIM 9: 125 µg/mL
Klebsiella pneumoniae [5]; [11]
  FIC of SP-BIM 9: 0.5
Klebsiella pneumoniae [5]; [7]
  MIC in combination, SP-BIM 13: 63 µg/mL
Klebsiella pneumoniae [5]; [8]
  FIC of SP-BIM 13: 0.3
Klebsiella pneumoniae [5]; antibiotic + SP-BIM 9
  Interpretation: Synergy (Synergy: FICI≤0.5)
  Σ FIC: <0.5
Klebsiella pneumoniae [5]; antibiotic + SP-BIM 13
  Interpretation: Synergy (Synergy: FICI≤0.5)
  Σ FIC: <0.5
Klebsiella pneumoniae [5]; SP-BIM 9 checkerboard
  MIC antibiotic only: 250 µg/mL
Klebsiella pneumoniae [5]; SP-BIM 13 checkerboard
  MIC antibiotic only: 250 µg/mL
Klebsiella pneumoniae [5]; [12]
  MIC in combination, Antibiotic: 4 µg/mL
Klebsiella pneumoniae [5]; [9]
  MIC in combination, Antibiotic: 63 µg/mL
Klebsiella pneumoniae [5]; in combination with SP-BIM 9
  FIC of antibiotic: 0.016
Klebsiella pneumoniae [5]; in combination with SP-BIM 13
  FIC of antibiotic: 0.3
Escherichia coli [6]; [15]
  MIC in combination: Antibiotic: 125
Escherichia coli [6]; [10]
  MIC in combination, SP-BIM 9: 125 µg/mL
Escherichia coli [6]; [11]
  FIC of SP-BIM 9: 0.5
Escherichia coli [6]; [8]
  FIC of SP-BIM 13: 0.3
Escherichia coli [6]; antibiotic + SP-BIM 9
  Interpretation: Synergy (Synergy: FICI≤0.5)
  Σ FIC: <0.6
Escherichia coli [6]; antibiotic + SP-BIM 13
  Interpretation: Additive (Additive: FICI>0.5-1.0)
  Σ FIC: <0.8
Escherichia coli [6]
  MIC antibiotic only: >250
Escherichia coli [6]; SP-BIM 9 checkerboard
  MIC antibiotic only: 250 µg/mL
Escherichia coli [6]; [12]
  MIC in combination, Antibiotic: 16 µg/mL
Escherichia coli [6]; combination with SP-BIM 13
  FIC of antibiotic: 0.5
Escherichia coli [6]; in combination with SP-BIM 9
  FIC of antibiotic: 0.064

## NC[C@H]1O[C@H](O[C@H]2[C@H](O)[C@@H](O[C@H]3O[C@H](CO)[C@@H](O)[C@H](N)[C@H]3O)[C@H](N)C[C@@H]2N)[C@H](O)[C@@H](O)[C@@H]1O [Kanamycin, kanamycin]
Clinical strains of MRSA; MRSA strain 1594
  Zone of clearance: 11.5 mm
  Interpretive standard (resistant/susceptible): R
Clinical strains of MRSA; MRSA strain 1621
  Zone of clearance: 19.5 mm
  Interpretive standard (resistant/susceptible): S
Clinical strains of MRSA; MRSA strain 5455
  Zone of clearance: 19.5 mm
  Interpretive standard (resistant/susceptible): S
Clinical strains of MRSA; MRSA strain 5872
  Zone of clearance: 0.0 mm
  Interpretive standard (resistant/susceptible): R
Clinical strains of MRSA; MRSA strain 7153
  Zone of clearance: 19.5 mm
  Interpretive standard (resistant/susceptible): S
Clinical strains of MRSA; MRSA strain 7172
  Zone of clearance: 20.5 mm
  Interpretive standard (resistant/susceptible): S
Clinical strains of MRSA; MRSA strain 7698
  Zone of clearance: 8.5 mm
  Interpretive standard (resistant/susceptible): R
Clinical strains of MRSA; MRSA strain 10132
  Zone of clearance: 8.0 mm
  Interpretive standard (resistant/susceptible): R
Enterococcus faecalis
  MIC of antibiotic, No Compound: 250 µg/mL
Escherichia coli O157:H7; E. coli O157:H7, with 32 μg/mL SP-BIM 28
  MIC of Kanamycin in combination with 32 μg/mL SP-BIM 28: 1 µg/mL
Escherichia coli O157:H7; Escherichia coli, read-out: MIC of Kanamycin
  MIC: 8 µg/mL
